Literature values as cited in USRE35801E, “Prophylactic and therapeutic composition for circulatory disorders and method of treatment” (priority 1985, dated 1998).

Assays:
[1] = tested on: electroencephalogram under normal state; details: deemed to be a side action in clinic; cited from earlier work
[2] = tested on: lipid peroxidation by active oxygen; details: cited from earlier work
[3] = cited from earlier work
[4] = tested on: central nervous system; details: in vivo; cited from earlier work

| SMILES | action against electroencephalogram under normal state [1] | inhibition of lipid peroxidation by active oxygen [2] | solubilizing in water [3] | central nervous system depressant activity [4] |
| --- | --- | --- | --- | --- |
| NC(=O)[C@@H]1CCCN1C(=O)[C@H](Cc1cnc[nH]1)NC(=O)[C@@H]1CCC(=O)N1 [TRH, L-pyrroglutamyl-L-histidyl-L-prolineamide] | exhibites an action |  |  |  |
| COC1=C(OC)C(=O)C(CCCCCCCCCCO)=C(C)C1=O [idebenone] |  | can inhibit lipid peroxidation by active oxygen | difficulty in solubilizing in water |  |
| CCN(CC)Cc1nccn1-c1ccc([N+](=O)[O-])cc1C(=O)c1ccccc1Cl [nizofenone] |  | can inhibit lipid peroxidation by active oxygen |  | potent central nervous system depressant activity |
